What was measured:
[1] = Dimensions (size, PDI) of DNPs co-assembled from IAJDs and Luc-mRNA by DLS; type: physicochemical
Method in brief: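 Hydrodynamic size and PDI were read by dynamic light scattering at 23 °C, 175° backscatter, 633 nm. Particles formed by fast injection of ethanolic IAJD stock (80 mg/mL) into nucleoside-modified luciferase mRNA (stock 4.0 mg/mL) in 10 mM acetate pH 4.0, 5 s vortex.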

[2] = test system: liver; test: In vivo mRNA delivery, IVIS imaging of organs: liver; set-up: species or system mice; key to Organs with luminescence: liver: strong: Strong meant the luminescence intensity in that organ was relatively high, compared to other organs; weak: Weak meant the luminescence intensity in that organ was relatively low, compared to other organs; settings: Table 17; mice, IVIS, 4-6 h after injection; intensity relative to other organs
Description: The exposure time was 1 min.
Tissue luminescence signal was measured on the IVIS imaging system using an exposure time of 60 seconds using medium binning (binning=8) to ensure that the signal obtained was within operative detection range. […] Bioluminescence imaging was performed as described above.
Tissue luminescence signal was measured on the IVIS imaging system using a certain exposure time (60, 30 or 15 seconds) and medium binning (binning=8) to ensure that the signal obtained was within operative detection range.

[3] = pKa measurements of individual IAJD molecules by titration; type: physicochemical; settings: ethanol saturated with NaCl, titrated with 0.1 M aqueous HCl; individual IAJD molecules, titration
Method in brief: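 pKa derived by half-equivalence-point analysis of a pH-meter titration curve: 0.1 M HCl added in 7.5 μL increments to a 1.5 mg/mL solution of each molecule in ethanol saturated with NaCl.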

[4] = Stability of DNPs by DLS after storage at 5° C.; type: physicochemical; set-up: key to Original size distribution type (DLS curve) / Size distribution type (DLS curve): U: DLS curve showed unimodal size distribution; B: DLS curve showed bimodal size distribution; M: DLS curve showed multimodal size distribution; settings: for pH Sample: DNPs: IAJD 4.0 mg/mL + Luc-mRNA 0.1 mg/mL, injection in acetate buffer pH 4.00; for PDI / Size (d, nm) / Original size distribution type (DLS curve): IAJD 4.0 mg/mL + Luc-mRNA 0.1 mg/mL; for PDI / Size (d, nm): acetate buffer; for Original size distribution type (DLS curve): before storage, acetate buffer pH 4.00
Method in brief: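 DNPs in acetate buffer sized by DLS after storage at 5 °C. Stability ranked Excellent, Good or Not stable according to retention, shrinkage or growth of original size and narrowing or broadening of size distribution.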

[5] = test system: spleen; test: In vivo mRNA delivery, IVIS imaging of organs: spleen; set-up: species or system mice; key to Organs with luminescence: spleen: strong: Strong meant the luminescence intensity in that organ was relatively high, compared to other organs; weak: Weak meant the luminescence intensity in that organ was relatively low, compared to other organs; settings: Table 17; mice, IVIS, 4-6 h after injection; intensity relative to other organs
[6] = Table 16, DNPs from IAJD 4 mg/mL and Luc-mRNA 0.10 mg/mL by injection in acetate buffer (10 mM, pH 4.0)
[7] = Table 17, DNPs used in vivo, IAJD 4 mg/mL, Luc-mRNA 0.10 mg/mL, acetate pH 4.0

SMILES | PDI [1, 6] | Size (d, nm) [1, 6] | PDI [1, 7] | Size (d, nm) [1, 7] | Organs with luminescence: liver [2] | pKa [3] | pH Sample [4] | Original size distribution type (DLS curve) [4] | Organs with luminescence: spleen [5] | Size distribution type (DLS curve) ([4]; after 62 days at 5° C.) | PDI ([4]; after 62 days at 5° C.) | Size (d, nm) ([4]; after 62 days at 5° C.) | Size distribution type (DLS curve) ([4]; after 27 days at 5° C.) | PDI ([4]; after 27 days at 5° C.) | Size (d, nm) ([4]; after 27 days at 5° C.) | other results
CCCCCCCCCCCCCCCOc1cc(COC(=O)CCCN2CCN(C)CC2)cc(OCCCCCCCCCCC)c1 [IAJD 118, 3-(Pentadecyloxy)-5-(undecyloxy)benzyl 4-(4-methylpiperazin-1-yl)butanoate] | 0.278 | 104 nm | 0.278 | 104 nm | liver (weak), | 6.33 | 4.43 | (B) | spleen (strong) |  |  |  |  |  |  | Size distribution type (DLS curve) ([4]; after 75 days at 5° C.): (B); PDI ([4]; after 75 days at 5° C.): 0.262; Size (d, nm) ([4]; after 75 days at 5° C.): 105 nm
CCCCCCCCCCCCCCCOc1cc(COC(=O)CCCN2CCN(CCO)CC2)cc(OCCCCCCCCCCC)c1 [IAJD 119, 3-(Pentadecyloxy)-5-(undecyloxy)benzyl 4-(4-(2-hydroxyethyl)piperazin-1-yl)butanoate] | 0.459 | 163 nm | 0.459 | 163 nm | liver (weak), | 6.44 | 4.36 | (M) | spleen (strong) | (B) | 0.489 | 254 nm |  |  |  | 
CCCCCCCCCCCCCCOc1cc(COC(=O)CCCN2CCN(CCO)CC2)cc(OCCCCCCCCCCC)c1 [IAJD 125, 3-(Tetradecyloxy)-5-(undecyloxy)benzyl 4-(4-(2-hydroxyethyl)piperazin-1-yl)butanoate] | 0.300 | 255 nm | 0.300 | 255 nm | liver (weak), | 6.64 | 4.44 | (U) | spleen (strong) | (U) | 0.283 | 276 nm |  |  |  | 
CCCCCCCCCCCCCCCCCOc1cc(COC(=O)CCCN2CCN(C)CC2)cc(OCCCCCCCCCCC)c1 [IAJD 126, 3-(Heptadecyloxy)-5-(undecyloxy)benzyl 4-(4-methylpiperazin-1-yl)butanoate] | 0.247 | 158 nm | 0.247 | 158 nm | liver (weak), | 6.52 | 4.48 | (U) | spleen (strong) |  |  |  |  |  |  | Size distribution type (DLS curve) ([4]; after 70 days at 5° C.): (U); PDI ([4]; after 70 days at 5° C.): 0.239; Size (d, nm) ([4]; after 70 days at 5° C.): 154 nm
CCCCCCCCCCCCCCCCCOc1cc(COC(=O)CCCN2CCN(CCO)CC2)cc(OCCCCCCCCCCC)c1 [IAJD 127, 3-(Heptadecyloxy)-5-(undecyloxy)benzyl 4-(4-(2-hydroxyethyl)piperazin-1-yl)butanoate] | 0.270 | 276 nm | 0.270 | 276 nm | liver (weak), | 6.52 | 4.46 | (U) | spleen (strong) | (B) | 0.248 | 263 nm |  |  |  | 
CCCCCCCCCCCCCCCCCCOc1cc(COC(=O)CCCN2CCN(CCO)CC2)cc(OCCCCCCCCCCC)c1 [IAJD 128, 3-(Octadecyloxy)-5-(undecyloxy)benzyl 4-(4-(2-hydroxyethyl)piperazin-1-yl)butanoate] | 0.381 | 291 nm | 0.381 | 291 nm | liver (weak), | 6.68 | 4.40 | (B) | spleen (strong) |  |  |  |  |  |  | Size distribution type (DLS curve) ([4]; after 70 days at 5° C.): (B); PDI ([4]; after 70 days at 5° C.): 0.459; Size (d, nm) ([4]; after 70 days at 5° C.): 210 nm
CCCCCCCCCCCOc1cc(COC(=O)CCCN2CCN(CCO)CC2)cc(OCC(CC)CCCC)c1 (stereo not drawn) [IAJD 130, 3-((2-Ethylhexyl)oxy)-5-(undecyloxy)benzyl 4-(4-(2-hydroxyethyl)piperazin-1-yl)butanoate] | 0.271 | 172 nm | 0.271 | 172 nm | liver (weak), | 6.62 | 4.50 | (U) | spleen (strong) | (U) | 0.282 | 149 nm |  |  |  | 
CCCCCCCCCCCCCCCOc1cc(COC(=O)CCCN2CCN(C)CC2)cc(OCC(CC)CCCC)c1 (stereo not drawn) [IAJD 135, 3-((2-Ethylhexyl)oxy)-5-(pentadecyloxy)benzyl 4-(4-methylpiperazin-1-yl)butanoate] | 0.267 | 92 nm | 0.267 | 92 nm | liver (strong), | 6.32 | 4.95 | (U) | spleen (weak) |  |  |  | (U) | 0.278 | 92 nm | 
CCCCCCCCCCCCCCCOc1cc(COC(=O)CCCN2CCN(CCO)CC2)cc(OCC(CC)CCCC)c1 (stereo not drawn) [IAJD 136, 3-((2-Ethylhexyl)oxy)-5-(pentadecyloxy)benzyl 4-(4-(2-hydroxyethyl)piperazin-1-yl)butanoate] | 0.307 | 149 nm | 0.307 | 149 nm | liver (weak), | 6.5 | 4.57 | (U) | spleen (strong) |  |  |  | (U) | 0.296 | 153 nm | 
CCCCCCCCCCCCCCCOc1cc(COC(=O)CCCN2CCN(C)CC2)cc(OCCCCCCCCCC)c1 [IAJD 141, 3-(Decyloxy)-5-(pentadecyloxy)benzyl 4-(4-methylpiperazin-1-yl)butanoate] | 0.313 | 158 nm | 0.313 | 158 nm | liver (strong), | 6.56 | 4.62 | (U) | spleen (strong) |  |  |  | (U) | 0.286 | 156 nm | 
CCCCCCCCCCCCCCCOc1cc(COC(=O)CCCN2CCN(CCO)CC2)cc(OCCCCCCCCCC)c1 [IAJD 142, 3-(Decyloxy)-5-(pentadecyloxy)benzyl 4-(4-(2-hydroxyethyl)piperazin-1-yl)butanoate] | 0.293 | 230 nm | 0.293 | 230 nm | liver (strong), | 6.69 | 4.52 | (B) | spleen (strong) |  |  |  | (U) | 0.266 | 214 nm | 
CCCCCCCCCCCCCCCOc1cc(COC(=O)CCCN2CCN(C)CC2)cc(OCCCCCCCCCCCC)c1 [IAJD 143, 3-(Dodecyloxy)-5-(pentadecyloxy)benzyl 4-(4-methylpiperazin-1-yl)butanoate] | 0.270 | 169 nm | 0.270 | 169 nm | liver (strong), | 6.33 | 4.48 | (U) | spleen (strong) |  |  |  | (U) | 0.243 | 166 nm | 

From patent US20240252677A1, “ONE-COMPONENT DELIVERY SYSTEM FOR NUCLEIC ACIDS” (The Trustees of the University of Pennsylvania, priority 2021, published 2024)
